From patent US12252469B2, “Crystalline forms of (E)-N-hydroxy-3-(1-(phenylsulfonyl)indolin-5-yl)acrylamide” (ANBOGEN THERAPEUTICS INC., priority 2023, dated 2025)
≈ marks a conversion by molar mass, not a printed value.

Assays:
[1] = Accelerated stability test of Type A powder; assay type: physicochemical; conditions: 40±2° C./75±5% RH
Procedure: Furthermore, a long-term stability test and an accelerated stability test of Type A (in the form of powder) are executed, and the results thereof are shown in Table 19 and Table 20, respectively. More specifically, for the long-term stability test, the packaging and storage condition: package in double PE bags with silica gel in an aluminum bag and in a paper drum; sample quantity: 0.6 g; temperature: 25±2° C.; % relative humidity: 60±5%; frequency of analysis: 0, 1, 2, 3, 6, 9, 12, 18, 24, 36, 48 and 60 months; duration: 60 months. As for the accelerated stability test, the packaging and storage condition: package in double PE bags with silica gel in an aluminum bag and in a paper drum; sample quantity: 0.6 g; temperature: 40±2° C.; % relative humidity: 75±5%; frequency of analysis: 0, 1, 2, 3 and 6 months; duration: 6 months.

[2] = Approximate solubility of starting material in 20 solvents at RT; assay type: physicochemical
Procedure: (peak) with one exotherm at 166.1° C. (peak). Approximate solubility of starting material was determined in 20 solvents at RT. Approximately 2 mg of sample was added into a 3-mL glass vial. Solvents in Table 2 were then added stepwise into the vials until the solids were dissolved visually or a total volume of 2 mL was reached. Solubility results summarized in Table 2 were used to guide the solvent selection in screening experiment design.

SMILES: O=C(/C=C/c1ccc2c(c1)CCN2S(=O)(=O)c1ccccc1)NO [Type A, (E)-N-hydroxy-3-(1-(phenylsulfonyl)indolin-5-yl) acrylamide]
- Appearance ([1]; 0 months): Pale white powder
- Assay (HPLC) (98.0%~102.0%) (anhydrous basis) ([1]; 0 months): 101.6%
- Related substance (HPLC) ABT-301 dimer (NMT 0.5%) ([1]; 0 months): 0.03 a/a %
- Related substance (HPLC) Individual unknown Impurity (NMT 0.4%) ([1]; 0 months): 0.03%
- Related substance (HPLC) Total Impurities (NMT 1.0%) ([1]; 0 months): 0.08%
- Water content (KF) (NMT 4.0%) ([1]; 0 months): 2.6%
- Appearance ([1]; 1 month): Pale white powder
- Assay (HPLC) (98.0%~102.0%) (anhydrous basis) ([1]; 1 month): 100.2%
- Related substance (HPLC) ABT-301 dimer (NMT 0.5%) ([1]; 1 month): 0.03 a/a %
- Related substance (HPLC) Individual unknown Impurity (NMT 0.4%) ([1]; 1 month): 0.05%
- Related substance (HPLC) Total Impurities (NMT 1.0%) ([1]; 1 month): 0.12%
- Water content (KF) (NMT 4.0%) ([1]; 1 month): 2.6%
- Appearance ([1]; 2 months): Pale white powder
- Assay (HPLC) (98.0%~102.0%) (anhydrous basis) ([1]; 2 months): 101.2%
- Related substance (HPLC) ABT-301 dimer (NMT 0.5%) ([1]; 2 months): 0.03 a/a %
- Related substance (HPLC) Individual unknown Impurity (NMT 0.4%) ([1]; 2 months): 0.03%
- Related substance (HPLC) Total Impurities (NMT 1.0%) ([1]; 2 months): 0.09%
- Water content (KF) (NMT 4.0%) ([1]; 2 months): 2.6%
- Appearance ([1]; 3 months): Pale white powder
- Assay (HPLC) (98.0%~102.0%) (anhydrous basis) ([1]; 3 months): 101.8%
- Related substance (HPLC) ABT-301 dimer (NMT 0.5%) ([1]; 3 months): 0.03 a/a %
- Related substance (HPLC) Individual unknown Impurity (NMT 0.4%) ([1]; 3 months): 0.06%
- Related substance (HPLC) Total Impurities (NMT 1.0%) ([1]; 3 months): 0.11%
- Water content (KF) (NMT 4.0%) ([1]; 3 months): 2.6%
- Appearance ([1]; 6 months): Pale white powder
- Assay (HPLC) (98.0%~102.0%) (anhydrous basis) ([1]; 6 months): 99.8%
- Related substance (HPLC) ABT-301 dimer (NMT 0.5%) ([1]; 6 months): 0.03 a/a %
- Related substance (HPLC) Individual unknown Impurity (NMT 0.4%) ([1]; 6 months): 0.06%
- Related substance (HPLC) Total Impurities (NMT 1.0%) ([1]; 6 months): 0.13%
- Water content (KF) (NMT 4.0%) ([1]; 6 months): 2.6%
- solubility ([2]; THE (as stored; likely THF), organic solvent or mixture, thermodynamic from solid, THE, RT): > 44000 µg/mL
- solubility ([2]; organic solvent or mixture, thermodynamic from solid, 1,4-Dioxane, RT): 21000 to 42000 µg/mL (≈ 61 to 122 mM)
- solubility ([2]; organic solvent or mixture, thermodynamic from solid, 2-MeTHF, RT): 2000 to 5000 µg/mL (≈ 5.81 to 14.5 mM)
- solubility ([2]; organic solvent or mixture, thermodynamic from solid, ACN, RT): 9500 to 19000 µg/mL (≈ 27.6 to 55.2 mM)
- solubility ([2]; organic solvent or mixture, thermodynamic from solid, Acetone, RT): > 40000 µg/mL
- solubility ([2]; organic solvent or mixture, thermodynamic from solid, CHCl3, RT): < 1000 µg/mL
- solubility ([2]; organic solvent or mixture, thermodynamic from solid, DCM, RT): 1000 to 2000 µg/mL (≈ 2.9 to 5.81 mM)
- solubility ([2]; organic solvent or mixture, thermodynamic from solid, DMAc, RT): > 40000 µg/mL
- solubility ([2]; organic solvent or mixture, thermodynamic from solid, DMSO, RT): > 40000 µg/mL
- solubility ([2]; organic solvent or mixture, thermodynamic from solid, EtOAc, RT): 2000 to 5000 µg/mL (≈ 5.81 to 14.5 mM)
- solubility ([2]; organic solvent or mixture, thermodynamic from solid, EtOH, RT): 5500 to 11000 µg/mL (≈ 16 to 31.9 mM)
- solubility ([2]; organic solvent or mixture, thermodynamic from solid, IPA, RT): 2000 to 5000 µg/mL (≈ 5.81 to 14.5 mM)
- solubility ([2]; organic solvent or mixture, thermodynamic from solid, IPAc, RT): < 1100 µg/mL
- solubility ([2]; organic solvent or mixture, thermodynamic from solid, MIBK, RT): 2000 to 5000 µg/mL (≈ 5.81 to 14.5 mM)
- solubility ([2]; organic solvent or mixture, thermodynamic from solid, MTBE, RT): < 1000 µg/mL
- solubility ([2]; organic solvent or mixture, thermodynamic from solid, MeOH, RT): 20000 to 40000 µg/mL (≈ 58.1 to 116 mM)
- solubility ([2]; organic solvent or mixture, thermodynamic from solid, NMP, RT): > 40000 µg/mL
- solubility ([2]; organic solvent or mixture, thermodynamic from solid, Toluene, RT): < 1000 µg/mL
- solubility ([2]; organic solvent or mixture, thermodynamic from solid, n-Heptane, RT): < 1000 µg/mL
- solubility ([2]; water, thermodynamic from solid, H2O, RT): < 1000 µg/mL
